# Test results reported in paper PMC4300089, “Structure-Guided Design of Selective Epac1 and Epac2 Agonists” (PLoS Biology, 2015).
# Columns and labels:
# Epac2^Δ280 = target: T1, Epac2^Δ280 (Mus musculus, UniProt Q9EQZ6); experiment: Epac activation assay (Rap1B•mGDP fluorescence nucleotide exchange), Epac2^Δ280; type: biochemical; conditions: for AC50 / Rel. kmax: Epac2^Δ280; for Rel. kmax: maximal activity relative to cAMP
# T1 construct: made in house
# T1 sequence (Q9EQZ6 281-993 isoform Q9EQZ6-3): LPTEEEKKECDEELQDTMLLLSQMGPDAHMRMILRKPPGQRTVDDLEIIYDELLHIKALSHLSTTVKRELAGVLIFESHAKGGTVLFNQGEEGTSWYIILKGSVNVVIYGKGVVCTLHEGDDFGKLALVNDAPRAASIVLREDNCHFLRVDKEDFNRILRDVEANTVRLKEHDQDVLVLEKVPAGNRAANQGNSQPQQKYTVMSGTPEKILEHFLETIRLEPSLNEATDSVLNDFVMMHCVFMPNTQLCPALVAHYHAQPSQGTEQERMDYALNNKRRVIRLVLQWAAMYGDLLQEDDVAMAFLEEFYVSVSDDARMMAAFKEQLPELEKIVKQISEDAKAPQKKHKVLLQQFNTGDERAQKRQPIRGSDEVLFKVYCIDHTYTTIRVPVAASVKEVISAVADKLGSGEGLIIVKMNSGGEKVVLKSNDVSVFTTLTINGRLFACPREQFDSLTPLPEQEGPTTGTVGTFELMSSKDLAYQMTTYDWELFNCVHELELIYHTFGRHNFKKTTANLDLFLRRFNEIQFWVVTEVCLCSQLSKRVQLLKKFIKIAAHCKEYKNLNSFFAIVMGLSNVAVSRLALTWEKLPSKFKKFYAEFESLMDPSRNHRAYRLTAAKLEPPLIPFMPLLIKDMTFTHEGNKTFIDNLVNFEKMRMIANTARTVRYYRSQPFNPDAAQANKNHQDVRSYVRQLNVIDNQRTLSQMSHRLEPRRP
# Experimental: Murine Epac2 was used as all previous structural studies were performed with it.
# The activity of Epac was determined by a fluorescence assay. […] The fluorescence intensity of Rap1B•mGDP is approximately twice that of free mGDP, and thus, nucleotide exchange can be observed as a decay in fluorescence upon the addition of excess unlabeled GDP.
# Epac1 = target: T2, Epac1 (Homo sapiens, UniProt O95398); experiment: Cellular Epac activity: Rap•GTP levels in U2OS cells stably expressing Epac1; type: cell-based; conditions: relative to induction with forskolin and IBMX, Fig. 6C
# T2 construct: pBabe-Flag-Epac1 (Epac1, homo sapiens, amino acids 1–881); expressed in transfected cells; host or cells: U2OS
# T2 sequence (O95398 1-881 isoform O95398-3): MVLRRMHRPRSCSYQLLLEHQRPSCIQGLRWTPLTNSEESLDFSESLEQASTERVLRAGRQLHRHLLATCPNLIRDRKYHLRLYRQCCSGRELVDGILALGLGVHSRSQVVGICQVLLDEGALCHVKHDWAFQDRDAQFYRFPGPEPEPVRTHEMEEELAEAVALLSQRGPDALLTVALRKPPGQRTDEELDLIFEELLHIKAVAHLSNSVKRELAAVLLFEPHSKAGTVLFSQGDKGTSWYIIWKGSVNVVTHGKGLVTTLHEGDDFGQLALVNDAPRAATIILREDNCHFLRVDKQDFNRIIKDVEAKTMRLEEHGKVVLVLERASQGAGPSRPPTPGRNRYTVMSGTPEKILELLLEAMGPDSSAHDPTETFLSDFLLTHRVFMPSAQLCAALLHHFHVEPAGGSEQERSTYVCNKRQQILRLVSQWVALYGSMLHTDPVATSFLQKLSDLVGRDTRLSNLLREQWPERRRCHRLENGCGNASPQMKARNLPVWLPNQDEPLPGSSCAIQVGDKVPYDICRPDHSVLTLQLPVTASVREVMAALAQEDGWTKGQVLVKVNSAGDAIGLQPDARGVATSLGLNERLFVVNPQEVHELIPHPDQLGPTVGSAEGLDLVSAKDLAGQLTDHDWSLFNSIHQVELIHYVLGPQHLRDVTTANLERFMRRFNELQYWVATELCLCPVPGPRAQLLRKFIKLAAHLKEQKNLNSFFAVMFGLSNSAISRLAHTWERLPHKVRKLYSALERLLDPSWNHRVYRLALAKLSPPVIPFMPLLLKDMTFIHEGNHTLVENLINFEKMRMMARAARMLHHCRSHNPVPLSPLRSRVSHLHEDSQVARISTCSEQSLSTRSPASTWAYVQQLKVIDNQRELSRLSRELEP
# Experimental: Rap•GTP levels were determined by precipitating GTP-bound Rap specifically from cell lysates and subsequent western Blotting with an α-Rap antibody (Santa Cruz Biotechnology). To generate stable cell lines, U2OS cells were transfected with pBabe-Flag-Epac1 (Epac1, homo sapiens, amino acids 1–881) or pBabe-Flag-Epac2 (Epac2, mus musculus, amino acids 1–993), selected for Epac expression and maintained under selection with 2 mg/l puromycin. The cells were cultured according to standard protocols. The activity of PKA was determined by western blotting with a monoclonal α-VASP antibody (BD Transduction Laboratories). Blots were developed by enhanced chemiluminescence (ECL) and the use of X-ray films; for quantification films were scanned. The intensities of the Rap•GTP bands and the upper band of VASP (P-VASP) were determined for each condition in ImageJ and normalized to the stimulation with forskolin and IBMX for each blot.
# PKA-IIα = target: T3, PKA-IIα (Homo sapiens, UniProt P13861); experiment: PKA activity assay, PKA-IIα; type: biochemical; conditions: for A (PKA activity): PKAIIα
# T3 construct: made in house
# Experimental: The recombinant human PKA catalytic subunit (Cα1) and the four human PKA regulatory subunits (RIα, RIβ, RIIα, RIIβ) were expressed, purified, and characterized as described. […] PKA holoenzymes were formed by mixing the R- and C-subunit at a molar ratio of 1.2:1 and extensive dialysis against 20 mM MOPS (pH 7.0), 150 mM NaCl, 2.5 mM β-mercaptoethanol, supplemented with 1 mM ATP and 10 mM MgCl2 for PKA-I at 4°C overnight. PKA holoenzymes were used at about 20 nM for the activation assay. The apparent activation constants (Kact) were determined by fitting the concentration-dependent activity to a sigmoid dose-response model.
# T3 sequence (P13861 whole entry): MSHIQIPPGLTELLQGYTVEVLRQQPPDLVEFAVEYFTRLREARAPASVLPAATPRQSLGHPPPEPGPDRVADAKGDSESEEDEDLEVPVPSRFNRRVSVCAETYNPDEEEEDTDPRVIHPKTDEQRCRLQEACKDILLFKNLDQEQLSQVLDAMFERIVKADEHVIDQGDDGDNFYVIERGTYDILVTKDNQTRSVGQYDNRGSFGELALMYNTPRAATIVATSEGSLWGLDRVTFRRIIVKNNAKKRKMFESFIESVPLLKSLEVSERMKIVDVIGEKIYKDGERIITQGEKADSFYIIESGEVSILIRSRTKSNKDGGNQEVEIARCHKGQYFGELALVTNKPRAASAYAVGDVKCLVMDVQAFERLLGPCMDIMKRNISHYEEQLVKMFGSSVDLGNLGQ
compound,measurement,setting,value
"Nc1ncnc2c1nc(Sc1ccc(Cl)cc1)n2[C@@H]1O[C@@H]2COP(=O)(O)O[C@H]2[C@H]1O [L-026, 8-pCPT-cAMP]",AC50,Epac2^Δ280,0.08 µM
same,Rel. kmax,Epac2^Δ280,0.5
same,rel. RapGTP,Epac1,1.1255
"Nc1ncnc2c1ncn2C1OC2COP(O)(=S)OC2C1O (centres unmarked) [S-000, Sp-cAMPS]",kobs,Epac2^Δ280; 0.01 μM compound,2.4e-05 s⁻¹
same,kobs,Epac2^Δ280; 0.05 μM compound,3.7e-05 s⁻¹
same,kobs,Epac2^Δ280; 0.08 μM compound,4.4e-05 s⁻¹
same,kobs,Epac2^Δ280; 0.1 μM compound,4.8e-05 s⁻¹
same,kobs,Epac2^Δ280; 0.2 μM compound,7.3e-05 s⁻¹
same,kobs,Epac2^Δ280; 0.3 μM compound,9.9e-05 s⁻¹
same,kobs,Epac2^Δ280; 0.4 μM compound,0.000122 s⁻¹
same,kobs,Epac2^Δ280; 0.5 μM compound,0.000139 s⁻¹
same,kobs,Epac2^Δ280; 0.6 μM compound,0.000141 s⁻¹
same,kobs,Epac2^Δ280; 0.7 μM compound,0.000159 s⁻¹
same,kobs,Epac2^Δ280; 0.8 μM compound,0.000171 s⁻¹
same,kobs,Epac2^Δ280; 1 μM compound,0.000175 s⁻¹
same,kobs,Epac2^Δ280; 2 μM compound,0.000357 s⁻¹
same,kobs,Epac2^Δ280; 3 μM compound,0.000431 s⁻¹
same,kobs,Epac2^Δ280; 4 μM compound,0.000482 s⁻¹
same,kobs,Epac2^Δ280; 5 μM compound,0.000505 s⁻¹
same,kobs,Epac2^Δ280; 6 μM compound,0.000495 s⁻¹
same,kobs,Epac2^Δ280; 7 μM compound,0.000524 s⁻¹
same,kobs,Epac2^Δ280; 8 μM compound,0.000525 s⁻¹
same,kobs,Epac2^Δ280; 10 μM compound,0.000559 s⁻¹
same,kobs,Epac2^Δ280; 20 μM compound,0.0007 s⁻¹
same,kobs,Epac2^Δ280; 30 μM compound,0.000741 s⁻¹
same,kobs,Epac2^Δ280; 40 μM compound,0.000742 s⁻¹
same,kobs,Epac2^Δ280; 50 μM compound,0.000724 s⁻¹
same,kobs,Epac2^Δ280; 60 μM compound,0.000763 s⁻¹
same,kobs,Epac2^Δ280; 70 μM compound,0.000779 s⁻¹
same,kobs,Epac2^Δ280; 80 μM compound,0.000793 s⁻¹
same,kobs,Epac2^Δ280; 100 μM compound,0.000771 s⁻¹
same,AC50,Epac2^Δ280,2.8 µM
same,Rel. kmax,Epac2^Δ280,2.5
"Cc1ccc(CSc2nc3c(N)ncnc3n2[C@@H]2O[C@@H]3CO[P@](O)(=S)O[C@H]3[C@H]2O)cc1 [S-230, Sp-8-pMeBnT-cAMPS]",kobs,Epac2^Δ280; 0.01 μM compound,3.1e-05 s⁻¹
same,kobs,Epac2^Δ280; 0.03 μM compound,5.1e-05 s⁻¹
same,kobs,Epac2^Δ280; 0.04 μM compound,5.8e-05 s⁻¹
same,kobs,Epac2^Δ280; 0.05 μM compound,6.5e-05 s⁻¹
same,kobs,Epac2^Δ280; 0.06 μM compound,6.9e-05 s⁻¹
same,kobs,Epac2^Δ280; 0.07 μM compound,7.9e-05 s⁻¹
same,kobs,Epac2^Δ280; 0.08 μM compound,8.9e-05 s⁻¹
same,kobs,Epac2^Δ280; 0.1 μM compound,0.000108 s⁻¹
same,kobs,Epac2^Δ280; 0.2 μM compound,0.000191 s⁻¹
same,kobs,Epac2^Δ280; 0.3 μM compound,0.000259 s⁻¹
same,kobs,Epac2^Δ280; 0.4 μM compound,0.000337 s⁻¹
same,kobs,Epac2^Δ280; 0.5 μM compound,0.000361 s⁻¹
same,kobs,Epac2^Δ280; 0.6 μM compound,0.000448 s⁻¹
same,kobs,Epac2^Δ280; 0.7 μM compound,0.000484 s⁻¹
same,kobs,Epac2^Δ280; 0.8 μM compound,0.000517 s⁻¹
same,kobs,Epac2^Δ280; 1 μM compound,0.000599 s⁻¹
same,kobs,Epac2^Δ280; 2 μM compound,0.000852 s⁻¹
same,kobs,Epac2^Δ280; 3 μM compound,0.00104 s⁻¹
same,kobs,Epac2^Δ280; 4 μM compound,0.00107 s⁻¹
same,kobs,Epac2^Δ280; 5 μM compound,0.00111 s⁻¹
same,kobs,Epac2^Δ280; 6 μM compound,0.00117 s⁻¹
same,kobs,Epac2^Δ280; 7 μM compound,0.00124 s⁻¹
same,kobs,Epac2^Δ280; 8 μM compound,0.00123 s⁻¹
same,kobs,Epac2^Δ280; 10 μM compound,0.00132 s⁻¹
same,kobs,Epac2^Δ280; 20 μM compound,0.00148 s⁻¹
same,kobs,Epac2^Δ280; 30 μM compound,0.00149 s⁻¹
same,kobs,Epac2^Δ280; 40 μM compound,0.00149 s⁻¹
same,kobs,Epac2^Δ280; 50 μM compound,0.00145 s⁻¹
same,kobs,Epac2^Δ280; 60 μM compound,0.00145 s⁻¹
same,kobs,Epac2^Δ280; 70 μM compound,0.00142 s⁻¹
same,kobs,Epac2^Δ280; 80 μM compound,0.00143 s⁻¹
same,kobs,Epac2^Δ280; 100 μM compound,0.00145 s⁻¹
same,AC50,Epac2^Δ280,0.07 µM
same,Rel. kmax,Epac2^Δ280,6.4
same,A (PKA activity),PKA-IIα; concentration 1 μM,8.2345 U/mg
same,A (PKA activity),PKA-IIα; concentration 5 μM,1.10E+01 U/mg
same,A (PKA activity),PKA-IIα; concentration 1.00E+01 μM,1.22E+01 U/mg
same,A (PKA activity),PKA-IIα; concentration 1.00E+03 μM,2.30E+01 U/mg
same,A (PKA activity),PKA-IIα; concentration 1.00E-01 μM,5.026 U/mg
same,A (PKA activity),PKA-IIα; concentration 1.00E-02 μM,4.542 U/mg
same,A (PKA activity),PKA-IIα; concentration 1.00E-04 μM,5.243 U/mg
same,A (PKA activity),PKA-IIα; concentration 1.00E-05 μM,3.782 U/mg
same,A (PKA activity),PKA-IIα; concentration 2.50E+02 μM,1.76E+01 U/mg
same,A (PKA activity),PKA-IIα; concentration 5.00E+01 μM,1.58E+01 U/mg
same,A (PKA activity),PKA-IIα; concentration 5.00E+02 μM,2.11E+01 U/mg
"Nc1ncnc2c1ncn2[C@@H]1O[C@@H]2COP(=O)(O)O[C@H]2[C@H]1O [cAMP, reference compound]",kobs,Epac2^Δ280; 0.4 μM compound,9.9e-05 s⁻¹
same,kobs,Epac2^Δ280; 0.5 μM compound,0.000111 s⁻¹
same,kobs,Epac2^Δ280; 0.6 μM compound,0.000113 s⁻¹
same,kobs,Epac2^Δ280; 0.7 μM compound,0.000125 s⁻¹
same,kobs,Epac2^Δ280; 0.8 μM compound,0.000132 s⁻¹
same,kobs,Epac2^Δ280; 1 μM compound,0.000141 s⁻¹
same,kobs,Epac2^Δ280; 2 μM compound,0.000207 s⁻¹
same,kobs,Epac2^Δ280; 3 μM compound,0.000246 s⁻¹
same,kobs,Epac2^Δ280; 4 μM compound,0.000263 s⁻¹
same,kobs,Epac2^Δ280; 5 μM compound,0.000273 s⁻¹
same,kobs,Epac2^Δ280; 6 μM compound,0.000293 s⁻¹
same,kobs,Epac2^Δ280; 7 μM compound,0.000298 s⁻¹
same,kobs,Epac2^Δ280; 8 μM compound,0.000303 s⁻¹
same,kobs,Epac2^Δ280; 10 μM compound,0.00031 s⁻¹
same,kobs,Epac2^Δ280; 20 μM compound,0.000328 s⁻¹
same,kobs,Epac2^Δ280; 30 μM compound,0.000331 s⁻¹
same,share of cAMP bound protein still in an inactive conformation,"Epac2^Δ280; Epac2, assuming the most efficient activators shift the equilibrium fully",~85%
same,EC50,"PKA-IIα; PKA-IIα, read-out: Kact",0.08 µM
same,A (PKA activity),PKA-IIα; concentration 1 μM,2.29E+01 U/mg
same,A (PKA activity),PKA-IIα; concentration 1.00E+01 μM,2.43E+01 U/mg
same,A (PKA activity),PKA-IIα; concentration 1.00E+02 μM,2.52E+01 U/mg
same,A (PKA activity),PKA-IIα; concentration 1.00E-01 μM,1.58E+01 U/mg
same,A (PKA activity),PKA-IIα; concentration 1.00E-02 μM,7.553 U/mg
same,A (PKA activity),PKA-IIα; concentration 1.00E-03 μM,5.677 U/mg
same,A (PKA activity),PKA-IIα; concentration 1.00E-04 μM,5.697 U/mg
same,A (PKA activity),PKA-IIα; concentration 1.00E-05 μM,3.782 U/mg
same,A (PKA activity),PKA-IIα; concentration 2.50E+02 μM,2.55E+01 U/mg
same,A (PKA activity),PKA-IIα; concentration 2.50E-01 μM,1.90E+01 U/mg
same,A (PKA activity),PKA-IIα; concentration 2.50E-02 μM,1.02E+01 U/mg
